Experimental data from publication PMC12732581, “Molecular and System-Level Characterization of MMP12 Suppression in Lung Cancer: A Combined Bioinformatics and Molecular Approach” (International Journal of Molecular Sciences, 2025).
Values joined by “and” are separate entries in the source; they are usually repeats but may differ in a detail not shown here. Identical values can stand only once.

How the values were obtained:
H1299 cells [1] = experiment: Annexin V-FITC/PI apoptosis assay (flow cytometry); conditions: H1299, double IC50, 72 h; for Necrosis (%) (Annexin−/PI+, Q1-UL): control 0.7; for Late Apoptosis (%) (Annexin+/PI+, Q1-UR): control 2.6; for Early Apoptosis (%) (Annexin+/PI−, Q1-LR): control 8.7; for Total Apoptosis (%): control 11.3
Experimental: (§6) Apoptosis was assessed using Annexin-V/PI staining, following the method described earlier with minor modifications [84]. […] After the treatment, the cells were collected and stained with Annexin-V-FITC and propidium iodide. The stained cells were then analyzed using a BD FACSCanto II flow cytometer (Becton, Dickinson and Company (BD), Franklin Lakes, NJ, USA) and FACSDiva software (Becton, Dickinson and Company (BD), Franklin Lakes, NJ, USA).

[2] = tested on: APOA1 mRNA in H1299 cells; experiment: qPCR gene expression, APOA1; format: cell-based, human; conditions: H1299, 0.1 IC50, 72 h
Experimental: (§1) Quantitative real-time PCR (qPCR) was used to assess the impact of MMP12 inhibition in H1299 lung cancer cells.
(§2) Quantitative real-time PCR (qPCR) was conducted as previously described. Lung cancer cell lines (A549, H1299, H661) were seeded at approximately 4 × 10^5 cells per T-25 flask and incubated for 24 h. […] Total RNA was extracted, reverse-transcribed into cDNA, and qPCR was performed using SYBR Green on an Applied Biosystems platform, Foster City, CA, USA. Gene expression was normalized to GAPDH, and the fold-change was calculated using the 2^−ΔΔCt method. The basal expression of MMP12 in untreated A549, H1299, and H661 cells was assessed using the 2^−ΔCt method. Primer sequences and annealing temperatures (Ta) are listed in Table S2 (Supplementary Materials).

H1299 cells [3] = experiment: Soft agar colony formation assay (anchorage-independent growth); format: cell-based, human; conditions: for Colony count / Colony average size (px): H1299 soft agar; for Colony count: untreated 920; for Colony average size (px): untreated 746758
Experimental: Figures S12–S16 show a selection of images captured on day 15 at different magnifications: 4× and 20×.
The anchorage-independent colony formation assay was conducted using a previously described method with minor modifications. […] After 14 days of incubation, the colonies were imaged using the EVOS XL Core microscopeThermo Fisher Scientific, Waltham, MA, USA. and quantified.

[4] = tested on: SPARCL1 mRNA in H1299 cells; experiment: qPCR gene expression, SPARCL1; format: cell-based, human; conditions: H1299, 0.1 IC50, 72 h
Experimental: as §1, §2

A549 lung cancer cells = experiment: MTT cell viability assay, A549; format: cell-based, human
Experimental: (§3) To evaluate the impact of MMP12 inhibitors on lung cancer cell lines, an MTT assay was performed on A549, H1299, and H661 cells exposed to varying concentrations of inhibitors over 48, 72, and 96 h.
(§4) The lung cancer cell lines referenced as A549, H1299, and H661 were acquired from the American Type Culture Collection (ATCC, Manassas, VA, USA). Fibroblast cells of dermal origin were used as a model for normal human tissue, which were also purchased from ATCC. A549, H1299, and H661 cells were maintained in the RPMI culture medium, while fibroblast cells were maintained in the DMEM high glucose culture medium. Both RPMI and DMEM culture media were supplemented with 100 U/mL penicillin, 0.1 mg/mL streptomycin to prevent bacterial growth, 10% FBS to promote cell growth, and 2 mM L-glutamine as an energy source.
(§5) The 3-(4,5-dimethylthiazol-2-yl)-2,5-diphenyltetrazolium bromide (MTT) assay was employed to evaluate cell proliferation as previously noted. All experiments were performed in triplicate wells and were repeated at least twice independently. The percentage of the relative cell viability of treated cells versus the untreated cells (negative controls) was calculated using the following formula in Equation (1) (cell viability calculation):(1) Cell viability%=optical density of treated cells/optical density of untreated cells×100

[5] = tested on: CCL15 mRNA in H1299 cells; experiment: qPCR gene expression, CCL15; format: cell-based, human; conditions: H1299, 0.1 IC50, 72 h
Experimental: as §1, §2

H1299 lung cancer cells = experiment: MTT cell viability assay, H1299; format: cell-based, human
Experimental: as §3, §4, §5

[6] = tested on: PSME3 mRNA in H1299 cells; experiment: qPCR gene expression, PSME3; format: cell-based, human; conditions: H1299, 0.1 IC50, 72 h
Experimental: as §1, §2

[7] = tested on: MMP12 protein in H1299 cells; experiment: Western blot of MMP12 protein expression; format: cell-based, human; conditions: for Normalized MMP-12 (to GAPDH), Western blot: untreated H1299 0.9696
Experimental: Western blotting was conducted to assess the protein expression of MMP12 in lung cancer cell lines (A549, H1299, and H661), following the protocol established earlier. In summary, cells were seeded and incubated for 24 h. […] Total protein lysates were prepared, separated by SDS-PAGE, and transferred to nitrocellulose membranes. These membranes were then probed with primary antibodies against MMP12 and GAPDH. The protein bands were visualized using an HRP substrate and analyzed for relative expression.

[8] = tested on: ADAM9 mRNA in H1299 cells; experiment: qPCR gene expression, ADAM9; format: cell-based, human; conditions: H1299, 0.1 IC50, 72 h
Experimental: as §1, §2

H1299 cells [9] = conditions: human, 72 h
Experimental: as §6

H661 lung cancer cells = experiment: MTT cell viability assay, H661; format: cell-based, human
Experimental: as §3, §4, §5

recombinant human MMP12 = molecular target: T1, recombinant human MMP12 (Homo sapiens, UniProt P39900); experiment: MMP12 colorimetric thiopeptide enzyme inhibition assay (Abcam); format: biochemical
T1 construct: purchased Abcam
Experimental: The enzyme inhibition potential of synthesized p-chlorocinnamic acid derivatives against MMP12 was assessed using the Abcam colorimetric assay.
The inhibitory activity of the newly synthesized compounds against MMP12 was assessed using a previously established enzymatic assay protocol, as described in our earlier study. In brief, we conducted a colorimetric thiopeptide-based inhibition assay for MMP12 using recombinant human MMP12 and the reference inhibitor NNGH as a positive control. The IC50 values were calculated using GraphPad Prism version 9 (GraphPad Software, San Diego, CA, USA).

[10] = tested on: NFKBIA mRNA in H1299 cells; experiment: qPCR gene expression, NFKBIA; format: cell-based, human; conditions: H1299, 0.1 IC50, 72 h
Experimental: as §1, §2

H1299 cells [11] = experiment: Wound healing migration assay; format: cell-based, human; conditions: for Wound closure %: untreated 99; for Wound migration rate (px/h): untreated 16,702
Experimental: The wound healing migration assay was conducted using H1299 cells, following an established protocol. […] Images were captured at 0 and 48 h, and wound closure was quantified using ImageJ. Digital images were analyzed for wound area using the ImageJ software version 1.53e.

[12] = tested on: MMP12 mRNA in H1299 cells; experiment: qPCR gene expression, MMP12; format: cell-based, human; conditions: H1299, 0.1 IC50, 72 h
Experimental: as §1, §2

CD44 mRNA in H1299 cells = experiment: qPCR gene expression, CD44; format: cell-based, human; conditions: H1299, 0.1 IC50, 72 h
Experimental: as §1, §2

H1299 cells [13] = experiment: Cell cycle analysis (PI staining, flow cytometry); format: cell-based, human; conditions: H1299, ½ IC50, 48 h
Experimental: Cell cycle distribution was evaluated in H1299 cells using a modified version of the method described. […] After the treatment period, the cells were fixed with ethanol, stained with a propidium iodide/RNase A solution, and analyzed using a BD FACSCanto II flow cytometer. The data were processed with BD FACSDiva software version 8 (BD Biosciences, San Jose, CA, USA).

[14] = relative to untreated, GAPDH normalized
[15] = highest listed concentration (IC50)
[16] = lowest listed concentration (¼ IC50)
[17] = middle listed concentration (½ IC50)

T1 sequence (P39900 106-470): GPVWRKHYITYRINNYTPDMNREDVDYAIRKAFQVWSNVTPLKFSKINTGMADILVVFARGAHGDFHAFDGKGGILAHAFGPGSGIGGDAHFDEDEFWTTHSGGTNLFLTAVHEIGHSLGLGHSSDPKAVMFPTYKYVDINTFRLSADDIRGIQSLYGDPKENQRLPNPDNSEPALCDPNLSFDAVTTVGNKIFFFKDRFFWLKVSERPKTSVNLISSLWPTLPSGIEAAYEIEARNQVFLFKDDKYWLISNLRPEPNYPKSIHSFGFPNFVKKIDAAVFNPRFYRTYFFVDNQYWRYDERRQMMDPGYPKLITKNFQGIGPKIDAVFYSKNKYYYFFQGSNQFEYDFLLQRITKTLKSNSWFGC

SMILES: N.N.[Cl][Pt][Cl] [Cisplatin, reference compound]
- Necrosis (%) (Annexin−/PI+, Q1-UL) (H1299 cells [1]): 1.7%
- Late Apoptosis (%) (Annexin+/PI+, Q1-UR) (H1299 cells [1]): 11.6%
- Early Apoptosis (%) (Annexin+/PI−, Q1-LR) (H1299 cells [1]): 28.6%
- Total Apoptosis (%) (H1299 cells [1]): 40.2%

SMILES: O=C(/C=C/c1ccc(Cl)cc1)Nc1ccc(C(=O)c2ccccc2)cc1 [Compound C1]
- APOA1 Fold Change (2^−ΔΔCt) [2, 14]: 0.79
- APOA1 % Change ([2]; vs untreated control): −21%
- formation of cell colonies (number and size), in words (H1299 cells [3]; H1299, IC50, ½ IC50 or ¼ IC50, 72 h, vs untreated control): inhibited the formation of cell colonies
- Colony count (H1299 cells [3]; [15]): 292
- Colony average size (px) (H1299 cells [3]; [15]): 51655 px
- Colony count (H1299 cells [3]; [16]): 520
- Colony average size (px) (H1299 cells [3]; [16]): 262500 px
- Colony count (H1299 cells [3]; [17]): 408
- Colony average size (px) (H1299 cells [3]; [17]): 130041 px
- SPARCL1 Fold Change (2^−ΔΔCt) [4, 14]: 0.49
- SPARCL1 % Change ([4]; vs untreated control): −51%
- IC50 (A549 lung cancer cells; A549, 72 h): 118 µM
- IC50 (A549 lung cancer cells; Homo sapiens, A549, 48 h): 198 µM
- IC50 (A549 lung cancer cells; Homo sapiens, A549, 72 h): 119 µM
- IC50 (A549 lung cancer cells; Homo sapiens, A549, 96 h): 82 µM
- CCL15 Fold Change (2^−ΔΔCt) [5, 14]: 0.03
- CCL15 % Change ([5]; vs untreated control): −97%
- IC50 (H1299 lung cancer cells; H1299, 72 h): 91 µM and 91.7 µM
- IC50 (H1299 lung cancer cells; Homo sapiens, NCI-H1299, 48 h, H1299, 48 h): 359 µM
- IC50 (H1299 lung cancer cells; Homo sapiens, NCI-H1299, 72 h, H1299, 72 h): 91.7 µM
- IC50 (H1299 lung cancer cells; Homo sapiens, NCI-H1299, 96 h, H1299, 96 h): 99.7 µM
- PSME3 Fold Change (2^−ΔΔCt) [6, 14]: 0.54
- PSME3 % Change ([6]; vs untreated control): −46%
- MMP12 protein suppression (Western blot), in words ([7]; H1299, 0.1, ¼ and ½ IC50): less effective
- Normalized MMP-12 (to GAPDH), Western blot ([7]; H1299, 0.1 IC50, 72 h): 0.6296
- Normalized MMP-12 (to GAPDH), Western blot ([7]; H1299, ¼ IC50, 72 h): 0.3747
- Normalized MMP-12 (to GAPDH), Western blot ([7]; H1299, ½ IC50, 72 h): 0.1966
- ADAM9 Direction [8]: Up
- ADAM9 Fold Change (2^−ΔΔCt) [8, 14]: 123.60
- ADAM9 % Change ([8]; vs untreated control): +12,260%
- Viable (%) (Annexin−/PI−, Q1-LL) (H1299 cells [9]): 78.6%
- IC50 (H661 lung cancer cells; H661, 72 h): 34 µM
- IC50 (H661 lung cancer cells; Homo sapiens, NCI-H661, 48 h, H661, 48 h): 60.4 µM
- IC50 (H661 lung cancer cells; Homo sapiens, NCI-H661, 72 h, H661, 72 h): 33.9 µM
- IC50 (H661 lung cancer cells; Homo sapiens, NCI-H661, 96 h, H661, 96 h): 129 µM
- Necrosis (%) (Annexin−/PI+, Q1-UL) (H1299 cells [1]): 1.9%
- Late Apoptosis (%) (Annexin+/PI+, Q1-UR) (H1299 cells [1]): 2.9%
- Early Apoptosis (%) (Annexin+/PI−, Q1-LR) (H1299 cells [1]): 16.6%
- Total Apoptosis (%) (H1299 cells [1]): 19.5%
- inhibition at 50 µM (recombinant human MMP12): 32.9%
- NFKBIA Direction [10]: Up
- NFKBIA Fold Change (2^−ΔΔCt) [10, 14]: 24.33
- NFKBIA % Change ([10]; vs untreated control): +2333%
- Wound closure % (H1299 cells [11]; H1299, 48 h, at IC50 concentration): 10%
- Wound closure % (H1299 cells [11]; H1299, 48 h, at ¼ IC50): 72%
- inhibition of wound closure (H1299 cells [11]; H1299, 48 h, at ½ IC50 (C1 45.9, C7 24.1, C9 21.7, C10 32.7, C15 72.6 µM)): ~50%
- Wound closure % (H1299 cells [11]; H1299, 48 h, at ½ IC50): 50%
- Wound migration rate (px/h) (H1299 cells [11]; H1299, at IC50 concentration): 1,640.73 px/h
- Wound migration rate (px/h) (H1299 cells [11]; H1299, at ¼ IC50): 11,751 px/h
- Wound migration rate (px/h) (H1299 cells [11]; H1299, at ½ IC50): 9,225 px/h
- MMP12 Fold Change (2^−ΔΔCt) [12, 14]: 0.78
- MMP12 % Change ([12]; vs untreated control): −22%
- CD44 Fold Change (2^−ΔΔCt) (CD44 mRNA in H1299 cells; [14]): 0.48
- CD44 % Change (CD44 mRNA in H1299 cells; vs untreated control): −52%
- cells in G2/M phase (H1299 cells [13]): 9.1%
- cells in S phase (H1299 cells [13]): 36.5%
- cells in G0/G1 phase (H1299 cells [13]; untreated 62.5%): 47.4%

SMILES: O=C(/C=C/c1ccc(Cl)cc1)Nc1cccc(C(=O)c2ccccc2)c1 [Compound C2]
- IC50 (A549 lung cancer cells; A549, 48 h): > 1000 µM
- IC50 (A549 lung cancer cells; A549, 72 h): > 1000 µM
- IC50 (A549 lung cancer cells; A549, 96 h): > 1000 µM
- IC50 (H1299 lung cancer cells; H1299, 48 h): 827 µM
- IC50 (H1299 lung cancer cells; H1299, 72 h): 692 µM
- IC50 (H1299 lung cancer cells; H1299, 96 h): 349 µM
- IC50 (H661 lung cancer cells; H661, 48 h): 599 µM
- IC50 (H661 lung cancer cells; H661, 72 h): 410 µM
- IC50 (H661 lung cancer cells; H661, 96 h): 350 µM
- MMP12 enzyme inhibition (recombinant human MMP12; at 50 µM): 35.0%
